According to ChEMBL document CHEMBL4811240, “Discovery of N-substituted sulfamoylbenzamide derivatives as novel inhibitors of STAT3 signaling pathway based on Niclosamide” (Eur J Med Chem, 2021):
Active and inactive are the calls of the source. The rule behind the calls is not given here.

Tests used:
[1] = molecular target: Tyrosine-protein kinase JAK3 (Homo sapiens) (UniProt P52333); experiment: Inhibition of N-terminal His-tagged JAK3 (795 to 1124 residues) (unknown origin) expressed in Sf21 cells at 10 uM preincubated for 10 mins followed by peptide substrate addition relative to control
[2] = molecular target: Signal transducer and activator of transcription 3 (Homo sapiens) (UniProt P40763); experiment: Inhibition of STAT3 promoter activity in human MDA-MB-231 cells at 0.1 uM incubated for 24 hrs by dual luciferase reporter assay; assay type: cell-based
Sequence of Signal transducer and activator of transcription 3 (Homo sapiens) (P40763 whole entry, the tested form may be a part): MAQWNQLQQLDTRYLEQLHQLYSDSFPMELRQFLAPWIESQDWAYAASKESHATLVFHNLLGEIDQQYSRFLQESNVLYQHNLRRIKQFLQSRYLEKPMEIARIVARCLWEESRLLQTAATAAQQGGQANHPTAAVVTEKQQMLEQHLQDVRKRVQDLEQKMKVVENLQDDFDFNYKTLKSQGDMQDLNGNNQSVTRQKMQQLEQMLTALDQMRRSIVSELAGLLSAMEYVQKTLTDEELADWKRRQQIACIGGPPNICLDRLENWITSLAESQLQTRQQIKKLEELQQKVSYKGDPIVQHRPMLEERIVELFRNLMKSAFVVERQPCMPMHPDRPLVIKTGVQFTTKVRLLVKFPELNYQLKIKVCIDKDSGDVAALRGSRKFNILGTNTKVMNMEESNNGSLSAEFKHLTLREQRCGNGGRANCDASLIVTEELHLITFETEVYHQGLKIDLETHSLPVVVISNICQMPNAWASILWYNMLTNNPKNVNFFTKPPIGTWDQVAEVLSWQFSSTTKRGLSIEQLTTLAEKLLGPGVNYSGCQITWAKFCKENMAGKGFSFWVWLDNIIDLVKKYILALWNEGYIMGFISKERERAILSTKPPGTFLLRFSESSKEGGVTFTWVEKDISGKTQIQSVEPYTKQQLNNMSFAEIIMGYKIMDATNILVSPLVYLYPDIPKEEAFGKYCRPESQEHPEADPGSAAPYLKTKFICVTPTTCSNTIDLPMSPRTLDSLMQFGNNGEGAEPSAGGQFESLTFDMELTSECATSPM

[3] = molecular target: Platelet-derived growth factor receptor beta (Homo sapiens) (UniProt P09619); experiment: Inhibition of PDGFRbeta (557 to 1106 residues) (unknown origin) expressed in Sf21 at 10 uM preincubated for 10 mins followed by peptide substrate addition relative to control
Sequence of Platelet-derived growth factor receptor beta (Homo sapiens) (P09619 whole entry, the tested form may be a part): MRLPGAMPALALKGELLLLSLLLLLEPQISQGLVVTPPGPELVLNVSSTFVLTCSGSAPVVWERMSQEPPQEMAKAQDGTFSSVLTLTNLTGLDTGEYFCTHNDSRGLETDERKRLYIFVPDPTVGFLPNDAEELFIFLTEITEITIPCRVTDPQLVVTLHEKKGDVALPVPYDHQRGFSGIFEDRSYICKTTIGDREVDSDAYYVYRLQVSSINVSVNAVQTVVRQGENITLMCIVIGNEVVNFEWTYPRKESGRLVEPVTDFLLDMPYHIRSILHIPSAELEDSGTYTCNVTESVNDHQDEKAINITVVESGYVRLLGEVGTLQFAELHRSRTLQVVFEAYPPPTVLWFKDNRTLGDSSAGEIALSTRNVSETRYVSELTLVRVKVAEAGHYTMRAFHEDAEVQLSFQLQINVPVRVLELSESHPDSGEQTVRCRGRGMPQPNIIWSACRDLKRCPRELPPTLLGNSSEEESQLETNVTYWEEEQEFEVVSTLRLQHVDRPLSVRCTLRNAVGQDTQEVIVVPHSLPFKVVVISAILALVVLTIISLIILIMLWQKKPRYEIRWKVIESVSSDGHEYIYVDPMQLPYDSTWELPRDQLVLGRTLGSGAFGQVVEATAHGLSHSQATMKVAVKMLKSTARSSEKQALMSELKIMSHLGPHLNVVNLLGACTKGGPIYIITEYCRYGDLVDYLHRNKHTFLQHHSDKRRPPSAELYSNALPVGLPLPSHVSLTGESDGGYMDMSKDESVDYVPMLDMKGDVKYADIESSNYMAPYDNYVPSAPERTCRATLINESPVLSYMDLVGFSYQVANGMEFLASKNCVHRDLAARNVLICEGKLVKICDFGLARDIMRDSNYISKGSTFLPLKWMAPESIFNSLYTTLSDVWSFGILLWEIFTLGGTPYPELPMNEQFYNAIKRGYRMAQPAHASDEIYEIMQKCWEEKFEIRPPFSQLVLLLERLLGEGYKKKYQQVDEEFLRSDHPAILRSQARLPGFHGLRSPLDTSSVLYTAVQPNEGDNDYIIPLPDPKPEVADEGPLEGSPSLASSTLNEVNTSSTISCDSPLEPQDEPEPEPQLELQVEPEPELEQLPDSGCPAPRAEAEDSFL

[4] = molecular target: RAC-alpha serine/threonine-protein kinase (Homo sapiens) (UniProt P31749); experiment: Inhibition of human N-terminal His-tagged full length AKT1 (1 to 480 residues) expressed in Sf9 cells at 10 uM preincubated for 10 mins followed by peptide substrate addition relative to control
Sequence of RAC-alpha serine/threonine-protein kinase (Homo sapiens) (P31749 whole entry, the tested form may be a part): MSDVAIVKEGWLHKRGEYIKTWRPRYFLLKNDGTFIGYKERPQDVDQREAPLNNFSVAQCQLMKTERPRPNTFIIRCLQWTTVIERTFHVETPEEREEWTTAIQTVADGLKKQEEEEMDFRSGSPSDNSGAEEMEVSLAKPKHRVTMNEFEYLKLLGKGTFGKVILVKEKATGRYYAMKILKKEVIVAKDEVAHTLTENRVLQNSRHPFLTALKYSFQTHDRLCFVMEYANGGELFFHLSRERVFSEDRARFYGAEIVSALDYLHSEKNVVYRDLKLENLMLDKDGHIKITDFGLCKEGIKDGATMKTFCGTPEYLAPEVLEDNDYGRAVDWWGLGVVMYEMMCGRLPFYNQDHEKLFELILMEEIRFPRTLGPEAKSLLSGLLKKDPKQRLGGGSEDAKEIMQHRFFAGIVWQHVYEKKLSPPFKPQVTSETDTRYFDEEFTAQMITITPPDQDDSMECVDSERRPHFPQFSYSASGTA

[5] = molecular target: Mitogen-activated protein kinase 3 (Homo sapiens) (UniProt P27361); experiment: Inhibition of N-terminal GST-tagged full length ERK1 (1 to 379 residues) (unknown origin) expressed in Escherichia coli at 10 uM preincubated for 10 mins followed by peptide substrate addition relative to control
Sequence of Mitogen-activated protein kinase 3 (Homo sapiens) (P27361 whole entry, the tested form may be a part): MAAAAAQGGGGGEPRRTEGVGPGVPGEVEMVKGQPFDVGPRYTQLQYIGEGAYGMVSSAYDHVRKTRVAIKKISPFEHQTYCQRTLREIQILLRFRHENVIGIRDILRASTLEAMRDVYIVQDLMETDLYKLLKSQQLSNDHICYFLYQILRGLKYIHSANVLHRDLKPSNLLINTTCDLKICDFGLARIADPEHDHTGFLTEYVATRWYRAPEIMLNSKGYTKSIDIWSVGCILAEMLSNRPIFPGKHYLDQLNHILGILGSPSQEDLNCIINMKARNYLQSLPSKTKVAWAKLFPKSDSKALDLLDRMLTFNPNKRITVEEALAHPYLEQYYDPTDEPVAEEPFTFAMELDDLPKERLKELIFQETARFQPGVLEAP

[6] = molecular target: Inhibitor of nuclear factor kappa-B kinase subunit beta (Homo sapiens) (UniProt O14920); experiment: Inhibition of IKKbeta (1 to 662 residues) (unknown origin) expressed in Sf21 cells at 10 uM preincubated for 10 mins followed by peptide substrate addition relative to control
[7] = test system: Epidermal growth factor receptor (Homo sapiens), P00533 [T790M]; experiment: Inhibition of EGFR T790M mutant (669 to 1210 residues) (unknown origin) expressed in Sf21 cells at 10 uM preincubated for 10 mins followed by peptide substrate addition relative to control
[8] = molecular target: Mitogen-activated protein kinase 8 (Homo sapiens) (UniProt P45983); experiment: Inhibition of N-terminal GST-tagged JNK1 (2 to 364 residues) (unknown origin) expressed in Escherichia coli at 10 uM preincubated for 10 mins followed by peptide substrate addition relative to control
Sequence of Mitogen-activated protein kinase 8 (Homo sapiens) (P45983 whole entry, the tested form may be a part): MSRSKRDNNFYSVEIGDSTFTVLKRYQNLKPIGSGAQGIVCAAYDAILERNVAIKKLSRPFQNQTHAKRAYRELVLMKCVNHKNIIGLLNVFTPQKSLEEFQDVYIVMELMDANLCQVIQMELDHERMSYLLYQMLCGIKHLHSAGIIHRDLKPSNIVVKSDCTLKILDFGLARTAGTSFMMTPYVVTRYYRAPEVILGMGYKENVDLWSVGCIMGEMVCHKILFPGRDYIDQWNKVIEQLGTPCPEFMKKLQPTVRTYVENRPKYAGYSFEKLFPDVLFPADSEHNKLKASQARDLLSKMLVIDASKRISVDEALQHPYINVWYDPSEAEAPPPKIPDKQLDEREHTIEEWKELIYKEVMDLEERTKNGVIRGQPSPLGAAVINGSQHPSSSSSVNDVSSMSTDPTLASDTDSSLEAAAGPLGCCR

[9] = molecular target: Fibroblast growth factor receptor 4 (Homo sapiens) (UniProt P22455); experiment: Inhibition of FGFR4 (460 to 802 residues) (unknown origin) expressed in Sf21 cells at 10 uM preincubated for 10 mins followed by peptide substrate addition relative to control
Sequence of Fibroblast growth factor receptor 4 (Homo sapiens) (P22455 22-802 limits assumed): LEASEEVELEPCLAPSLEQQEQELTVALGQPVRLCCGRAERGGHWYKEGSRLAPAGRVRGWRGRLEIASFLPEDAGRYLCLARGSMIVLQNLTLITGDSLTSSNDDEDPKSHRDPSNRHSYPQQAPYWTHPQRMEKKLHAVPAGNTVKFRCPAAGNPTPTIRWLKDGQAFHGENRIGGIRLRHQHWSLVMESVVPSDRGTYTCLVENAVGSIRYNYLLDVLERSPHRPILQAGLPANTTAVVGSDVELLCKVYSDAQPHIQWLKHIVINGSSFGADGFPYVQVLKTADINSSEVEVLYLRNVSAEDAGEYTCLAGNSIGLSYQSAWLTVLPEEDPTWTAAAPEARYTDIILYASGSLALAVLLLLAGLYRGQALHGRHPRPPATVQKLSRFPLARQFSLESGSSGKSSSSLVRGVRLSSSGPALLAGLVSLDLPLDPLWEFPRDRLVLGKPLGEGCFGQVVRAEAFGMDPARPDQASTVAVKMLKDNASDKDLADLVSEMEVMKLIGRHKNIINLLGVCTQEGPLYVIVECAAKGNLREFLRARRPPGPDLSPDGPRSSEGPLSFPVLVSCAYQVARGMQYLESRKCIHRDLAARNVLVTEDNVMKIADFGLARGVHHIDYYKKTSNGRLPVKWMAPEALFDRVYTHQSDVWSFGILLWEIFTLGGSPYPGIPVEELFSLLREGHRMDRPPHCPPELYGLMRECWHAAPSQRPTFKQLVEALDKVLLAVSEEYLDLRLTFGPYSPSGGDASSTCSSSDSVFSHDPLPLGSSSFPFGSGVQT

[10] = Lipophilicity, log P of the compound; assay type: physicochemical; settings: octanol/water
[11] = molecular target: Serine/threonine-protein kinase PLK1 (Homo sapiens) (UniProt P53350); experiment: Inhibition of full length PLK1 (1 to 603 residues) (unknown origin) expressed in Sf21 at 10 uM preincubated for 10 mins followed by peptide substrate addition relative to control
Sequence of Serine/threonine-protein kinase PLK1 (Homo sapiens) (P53350 whole entry, the tested form may be a part): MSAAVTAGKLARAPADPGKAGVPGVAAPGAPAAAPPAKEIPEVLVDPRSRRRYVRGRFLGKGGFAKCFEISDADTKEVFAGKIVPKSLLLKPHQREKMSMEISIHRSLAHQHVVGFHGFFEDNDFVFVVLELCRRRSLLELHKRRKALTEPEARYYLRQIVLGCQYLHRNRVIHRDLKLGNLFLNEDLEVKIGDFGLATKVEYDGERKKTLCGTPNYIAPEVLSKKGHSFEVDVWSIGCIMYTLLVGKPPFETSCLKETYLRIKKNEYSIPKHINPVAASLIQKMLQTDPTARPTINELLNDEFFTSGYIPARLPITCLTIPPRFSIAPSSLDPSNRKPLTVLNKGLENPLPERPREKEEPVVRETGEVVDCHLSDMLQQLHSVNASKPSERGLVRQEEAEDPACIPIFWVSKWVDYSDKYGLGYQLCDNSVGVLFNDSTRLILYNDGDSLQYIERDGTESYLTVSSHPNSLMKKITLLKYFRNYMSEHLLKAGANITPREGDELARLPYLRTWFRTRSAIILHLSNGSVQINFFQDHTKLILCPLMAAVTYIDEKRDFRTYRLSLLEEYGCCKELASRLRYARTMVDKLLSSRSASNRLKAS

[12] = molecular target: Mitogen-activated protein kinase 9 (Homo sapiens) (UniProt P45984); experiment: Inhibition of N-terminal GST-tagged JNK2 (1 to 364 residues) (unknown origin) expressed in Escherichia coli at 10 uM preincubated for 10 mins followed by peptide substrate addition relative to control
Sequence of Mitogen-activated protein kinase 9 (Homo sapiens) (P45984 whole entry, looked up, the tested form may be a part): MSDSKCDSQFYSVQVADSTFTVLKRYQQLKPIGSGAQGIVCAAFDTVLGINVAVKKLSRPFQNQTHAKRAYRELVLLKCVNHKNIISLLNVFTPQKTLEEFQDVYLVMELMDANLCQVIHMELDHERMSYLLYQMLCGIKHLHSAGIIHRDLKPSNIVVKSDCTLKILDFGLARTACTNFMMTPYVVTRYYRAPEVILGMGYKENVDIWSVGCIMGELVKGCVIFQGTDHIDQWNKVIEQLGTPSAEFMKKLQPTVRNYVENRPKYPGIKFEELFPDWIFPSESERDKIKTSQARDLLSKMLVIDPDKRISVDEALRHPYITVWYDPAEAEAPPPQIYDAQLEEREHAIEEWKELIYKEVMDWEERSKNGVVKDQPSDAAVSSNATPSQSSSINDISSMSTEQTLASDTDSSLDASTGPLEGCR

[13] = molecular target: Signal transducer and activator of transcription 3 (Homo sapiens) (UniProt P40763); experiment: Inhibition of IL-6 induced STAT3 phosphorylation in human MDA-MB-231 cells at 5 uM incubated for 2 hrs by Western blotting analysis; assay type: cell-based
[14] = molecular target: Serine/threonine-protein kinase PAK 1 (Homo sapiens) (UniProt Q13153); experiment: Inhibition of full length N-terminal GST-tagged PAK1 (1 to 545 residues) (unknown origin) expressed in Sf21 at 10 uM preincubated for 10 mins followed by peptide substrate addition relative to control
MDA-MB-231 [15] = experiment: Induction of apoptosis in human MDA-MB-231 cells assessed as apoptotic cells at 1 uM measured after 24 hrs by annexinV-FITC/propidium iodide staining based flow cytometry analysis (reference value: 2.49%); assay type: functional
MDA-MB-231 [16] = experiment: Antitumor activity against human MDA-MB-231 cells xenografted in BALB/c nude mouse assessed as the inhibition of tumor growth at 30 mg/kg, ig administered every two days; assay type: functional, organism-based
[17] = molecular target: Signal transducer and activator of transcription 1-alpha/beta (Homo sapiens) (UniProt P42224); experiment: Inhibition of IL-6 induced STAT1 phosphorylation in human MDA-MB-231 cells at 1 to 10 uM preincubated for 2 hrs followed by IL-6 stimulation and measured after 45 mins by Western blotting analysis; assay type: cell-based; settings: dose 1-10 µM, time 165.0 min
[18] = molecular target: Epidermal growth factor receptor (Homo sapiens) (UniProt P00533); experiment: Inhibition of wild-type EGFR (669 to 1210 residues) (unknown origin) expressed in Sf21 cells at 10 uM preincubated for 10 mins followed by peptide substrate addition relative to control
MDA-MB-231 [19] = experiment: Induction of apoptosis in human MDA-MB-231 cells assessed as apoptotic cells at 5 uM measured after 24 hrs by annexinV-FITC/propidium iodide staining based flow cytometry analysis (reference value: 2.49%); assay type: functional
MDA-MB-231 [20] = experiment: Inhibition of colony formation in human MDA-MB-231 cells at 1 uM after 24 hrs followed by compound washout and subsequent incubation for 14 days by crystal violet staining based assay; assay type: functional, cell-based
[21] = test system: Epidermal growth factor receptor (Homo sapiens), P00533 [L858R]; experiment: Inhibition of EGFR L858R mutant (669 to 1210 residues) (unknown origin) expressed in Sf21 cells at 10 uM preincubated for 10 mins followed by peptide substrate addition relative to control
[22] = molecular target: Cyclin-dependent kinase 7 (Homo sapiens) (UniProt P50613); experiment: Inhibition of CDK7 (unknown origin) at 10 uM preincubated for 10 mins followed by peptide substrate addition relative to control
MDA-MB-231 [23] = experiment: Induction of apoptosis in human MDA-MB-231 cells assessed as apoptotic cells at 10 uM measured after 24 hrs by annexinV-FITC/propidium iodide staining based flow cytometry analysis (reference value: 2.49%); assay type: functional
[24] = molecular target: Signal transducer and activator of transcription 3 (Homo sapiens) (UniProt P40763); experiment: Inhibition of STAT3 promoter activity in human MDA-MB-231 cells at 1 uM incubated for 24 hrs by dual luciferase reporter assay; assay type: cell-based
[25] = molecular target: Proto-oncogene tyrosine-protein kinase receptor Ret (Homo sapiens) (UniProt P07949); experiment: Inhibition of RET (658 to 1114 residues) (unknown origin) expressed in Sf21 at 10 uM preincubated for 10 mins followed by peptide substrate addition relative to control
[26] = molecular target: Tyrosine-protein kinase JAK1 (Homo sapiens) (UniProt P23458); experiment: Inhibition of JAK1 (850 to 1154 residues) (unknown origin) expressed in Sf21 cells at 10 uM preincubated for 10 mins followed by peptide substrate addition relative to control
[27] = molecular target: ALK tyrosine kinase receptor (Homo sapiens) (UniProt Q9UM73); experiment: Inhibition of ALK (1058 to 1620 residues) (unknown origin) expressed in Sf21 cells at 10 uM preincubated for 10 mins followed by peptide substrate addition relative to control
MDA-MB-231 [28] = experiment: Antiproliferative activity against human MDA-MB-231 cells assessed as inhibition of cell viability at 10 uM after 48 hrs by MTT assay relative to control; assay type: functional

Structure (SMILES): CC(C)(C)OC(=O)c1ccc(NC(=O)c2ccc(Cl)c(S(N)(=O)=O)c2)cc1
- inhibition [1]: 4.24%
- inhibition [2]: 24.7%
- inhibition [3]: -1.19%
- inhibition [4]: 3.48%
- inhibition [5]: 1.72%
- inhibition [6]: 2.87%
- inhibition [7]: 2.23%
- inhibition [8]: 2.52%
- inhibition [9]: -1.53%
- logP [10]: 1.83
- inhibition [11]: 5.19%
- inhibition [12]: 4.16%
- inhibition [13]: 100%
- inhibition [14]: 9.32%
- Activity (MDA-MB-231 [15]): 6.75%
- Activity (MDA-MB-231 [16]): Active
- inhibition [17]: inactive
- inhibition [18]: 4.41%
- Activity (MDA-MB-231 [19]): 23.14%
- inhibition (MDA-MB-231 [20]): Active
- inhibition [21]: 4.82%
- inhibition [22]: 6.45%
- Activity (MDA-MB-231 [23]): 25.63%
- inhibition [24]: 87.9%
- inhibition [25]: -7.23%
- inhibition [26]: 2.99%
- inhibition [27]: 5.19%
- inhibition at 10 µM (MDA-MB-231 [28]): 93%
